In one experiment the test system is LN229 MGMT− shMLH1 cells. The experiment is described as follows: Short-term viability assay, LN229 MGMT- shMLH1. The experiment is classed as cell-based, human. Particulars: for IC50: Homo sapiens, LN-229, Table III, read-out: IC50 against LN229 cell lines, MGMT− MMR−; for MGMT− RI: Table III. How it is done: The activity of KL-50 in MGMT-LN229 cells engineered to lack expression of other key MMR proteins including MSH6, MLH1, PMS2, and MSH3 was also confirmed. Western blotting was performed in LN229 MGMT+/−cells with stable expression of shRNA targeting MSH6, MLH1, PMS2, or MSH3 to confirm depletion of the shRNA targets. In shMSH6 cells, there was reduced expression of MSH2, and in shMLH1 cells, there was loss of PMS2, due to destabilization in the setting of loss of their heterodimeric partners. GAPDH serves as loading control. […] Short-term viability assay curves for KL-50 in LN229 MGMT+/−, MMR+/shMSH6 cells. […] Short-term viability assay curves for KL-50 in LN229 MGMT+/−, MMR+/shMLH1 cells. […] Short-term viability assay curves for KL-50 in LN229 MGMT+/−, MMR+/shPMS2 cells. […] Short-term viability assay curves for KL-50 in LN229 MGMT+/−, MMR+/shMSH3 cells.
MMR Protein shRNA Knockdown. pGIPZ lentiviral shRNA vectors targeting MSH2, MSH6, MLH1, PMS2, and MSH3 were purchased from Horizon Discovery (Table IV). Lentiviral particles were produced in HEK293T cells via co-transfection with lentiviral shRNA plasmid, pCMV-VSV-G envelope plasmid (Addgene, #8454) and psPAX2 packaging plasmid (Addgene, #12260), using Lipofectamine 3000 Reagent (Invitrogen, L3000001) per manufacturer's protocol. Viral particles were harvested 48 h post-transfection and used to transduce LN229 MGMT+/−cells in the presence of 8 μg/mL polybrene. Selection of pooled cells with lentiviral expression was established with 1 μg/mL puromycin 48 h post-transduction for 3 to 4 days. Single cell cloning was performed by limiting dilution and protein knockdown was confirmed by western blotting.
Short-term Cell Viability Assay. Cells were seeded in 96-well plates at 1000 or 2000 cells/well and allowed to adhere at 23° C. for 60 min and then incubated overnight at 37° C. Cells were treated with indicated concentrations of compounds in triplicate for 4-6 days prior to fixation with 3.7% paraformaldehyde and nuclear staining with 1 μg/mL Hoechst 33342 dye. Cells were imaged on a Cytation 3 imaging reader (BioTek) and quantified using CellProfiler software. For in vitro short-term growth delay experiments, IC50 values were determined from the nonlinear regression equation, [inhibitor] vs normalized response with variable slope.

Experiment [1] has as its system LN229 MGMT+/−, MMR+/− cells. The experiment in a line: Micronuclei analysis. The experiment is classed as cell-based, human. Particulars: 20 μM, 48 h. An excerpt: (§1) FIGS. 8A-8K. (FIG. 8A) Change in percent cells with 1 micronuclei from baseline (DMSO control) after treatment as in FIGS. 5A and 5C. Columns, mean; error bars, SD; n>15 technical replicates; **** p<0.0001; ns, not significant. (FIG. 8B) Short-term viability assay curves for KL-50 in PD20 cells, deficient in FANCD2 (FANCD2−/−) or complemented with FANCD2 (+FANCD2). (FIG. 8C) Short-term viability assay curves for KL-50 in PEO4 (BRCA2+) and PEO1 (BRCA2−/−) cells pre-treated with 0.01% DMSO control or 10 μM O^6BG (+O^6BG) for 1 h prior to KL-50 addition. (FIG. 8D) Short-term viability assay curves for KL-50 in DLD1 BRCA2+/− and BRCA2−/−cells pre-treated with 0.01% DMSO control or 10 μM O^6BG (+O^6BG) for 1 h prior to KL-50 addition. For FIGS. 8B-8D, points, mean; error bars, SD; n=3 technical replicates. […] (FIG. 8E) Validation of micronuclei identification using olaparib as positive control. […] The % FANCD2 ubiquitination (% FANCD2 Ub) is quantified as the background-corrected integrated band intensity of the upper band divided by the sum of the background-corrected integrated band intensities of the upper and lower bands. […]
Micronuclei Analysis. An automated image analysis pipeline was developed by YCMD using InCell Analyzer software to quantify micronuclei formation. […]

Experiment [2] concerns FANCD2 ubiquitination in LN229 MGMT+/−, MMR+/− cells. The experiment is described as follows: Western blot analysis of FANCD2 ubiquitination. The experiment is classed as cell-based, human.
Excerpt: as §1, with “control. Change in percent cells with 1 micronuclei from baseline (DMSO control) after treatment with olaparib (10 μM) for 48 h in LN229 MGMT+/−, MMR+/−cells. Columns, mean; error bars, SD; n>15 technical replicates; **** p<0.0001.” for “control.”

The subject of experiment [3] is LN229 MGMT−/MMR− intracranial tumors. The experiment in a line: Orthotopic intracranial LN229 MGMT-/MMR- model. In kind it is in vivo, mouse. Particulars: 25 mg/kg IP M-F x 1 week as printed. The text has this: FIGS. 10A-10G. KL-50 is efficacious in an LN229 MGMT−/MMR− intracranial model and is well tolerated with limited myelosuppression at supratherapeutic doses. […] (FIG. 10B) Mean body change with SEM of mice during maximum tolerated dose experiment in non-tumor bearing mice. (FIGS. 10C-10G) Complete blood counts for mice pre-treatment and 7 days post-treatment with escalations of single dose KL-50 delivered PO. WBC lower limit of normal (LLN): 2.2 K/L; Neutrophils LLN: 0.42 K/L; Lymphocyte LLN: 1.7 K/L; RBC LLN: 3.47 M/L; Platelet LLN: 155 K/L. *, P<0.05; ****, P<0.0001.
Mouse Protocol for Intracranial Study. LN229 MGMT−/MMR− cells stably expressing firefly luciferase (lentivirus-plasmids from Cellomics Technology; PLV-10003), were injected intracranially using a stereotactic injector. Briefly, 1.5 million cells in […] PBS were injected into the brain and the mice were imaged weekly using the IVIS Spectrum In Vivo Imaging System (PerkinElmer) according to the manufacturer's protocol. Images were taken on a weekly basis and acquired 10 min post intraperitoneal injection with d-luciferin (150 mg/kg of animal mass). […] Quantification of BLI flux (photons/see) was made through the identification of a region of interest (ROI) for each tumor.

Consider `Cn1nnc2c(C(N)=O)ncn2c1=O` [TMZ, 4-methyl-5-oxo-2,3,4,6,8-pentazabicyclo[4.3.0]nona-2,7,9-triene-9-carboxamide, reference compound], for which, in the experiment with LN229 MGMT− shMLH1 cells, the half-inhibitory concentration (IC50) (in general, the midpoint of a concentration-inhibition curve) amounted to 917 ± 85 µM and the “MGMT− RI” value was determined as 180. Further, in experiment [1], the “foci induction or micronuclei formation in MGMT−/MMR− cells” value is “not observed”. For the same molecule, the FANCD2 ubiquitination result in experiment [2] is recorded as “only in MGMT−/MMR+cells”. Moreover, the “intracranial tumor growth (BLI)” value in experiment [3] is given as “only transiently suppressed tumor growth”.

Consider `NC(=O)c1ncn2c(=O)n(CCF)nnc12` [KL-50], for which, in the experiment with LN229 MGMT− shMLH1 cells, the IC50 stood at 7.8 ± 0.3 µM and the “MGMT− RI” value turned out to be 0.6. Further, the micronuclei formation entry in experiment [1] (greatest in MGMT−/MMR− cells) is “significant increase in micronuclei”. Moreover, the FANCD2 ubiquitination entry in experiment [2] was “observed specifically in MGMT-cells”. Moreover, the “intracranial tumor growth (BLI)” value in experiment [3] is “effective”.

These data come from patent publication US20240294478A1, “ANTI-CANCER COMPOUNDS AND METHODS OF USE” (YALE UNIVERSITY, priority 2021, published 2024).
